This note sets out measurements from patent US5593982A, “Cyclopentanperhydrophenanthren-17β-(3-furyl)-3-derivatives and pharmaceutical compositions comprising same for the treatment of cardiovascular disorders” (Sigma-Tau Industrie Farmaceutiche Riunite S.p.A., priority 1992, dated 1997).

Counter-ions that a name gives are not always drawn. Like-named read-outs stand apart in the source and are kept apart here.

In assay [1] the target is T1, Na^+,K^+ -ATPase receptor (Canis lupus familiaris, UniProt P50997).
T1 construct: from tissue; mammalian kidney outer medulla by the cited Jorgensen 1974 method (own knowledge)
The assay is described as follows: displacement of the specific 3H-ouabain binding from the purified Na+,K+-ATPase receptor. An excerpt: (§1) To test the affinity for the receptor site of the Na^+,K^+ -ATPase and the agonist or antagonist activity on the enzyme, the following tests were used: a) displacement of the specific ^3 H-ouabain binding from the Na^+,K^+ -ATPase receptor purified according to Jorghensen (Jorghensen P., BBA, 1974, 356, 36) and Erdmann (Erdmann E. et al., Arzneim. Forsh., 1984, 34, 1314); b) inhibition of the activity of the purified Na^+,K^+ -ATPase measured as % of hydrolysis of ^32 P-ATP in presence and in absence of the tested compound (Mall F. et al., Biochem. Pharmacol., 1984, 33, 47).

The target of assay [2] is T2, purified Na^+,K^+ -ATPase (Canis lupus familiaris, UniProt P50997).
T2 construct: from tissue; mammalian kidney outer medulla by the cited Jorgensen 1974 method (own knowledge)
The assay is described as follows: inhibition of the activity of the purified Na+,K+-ATPase measured as % of hydrolysis of 32P-ATP. It is filed as biochemical.
Source text: as §1

[3] abbreviates: hydrolysis of 32P-ATP, purified Na+,K+-ATPase, read-out: Inhibitory Activity log IC50 (converted).
[4] abbreviates: displacement of specific 3H-ouabain binding, purified Na+,K+-ATPase, read-out: Binding 3H-Ouab. Displacement log IC50 (converted).

Turning to `C[C@]12CC[C@H](OCCN)C[C@H]1CC[C@@H]1[C@@H]2CC[C@]2(C)[C@@H](c3ccoc3)CC[C@]12O` [Comp. I-aa, 3β-(2-Aminoethoxy)-17β-(3-furyl)-5β-androstan-14β-ol], the IC50 was 158 nM in assay [1] and 501 nM in assay [2].

Regarding `C[C@]12CC[C@H](OCCCCN)C[C@H]1CC[C@@H]1[C@@H]2CC[C@]2(C)[C@@H](c3ccoc3)CC[C@]12O` [Comp. I-ac, 3β-(4-Aminobutoxy)-17β-(3-furyl)-5β-androstan-14β-ol], the IC50 is 398 nM in assay [1] and 2000 nM in assay [2].

As to `C[C@]12CC[C@H](OCCN3CCCC3)C[C@H]1CC[C@@H]1[C@@H]2CC[C@]2(C)[C@@H](c3ccoc3)CC[C@]12O` [Comp. I-ad, 3β-(2-(1-Pyrrolydinyl)ethoxy)-17β-(3-furyl)-5β-androstan-14β-ol], the half-inhibitory concentration (IC50) was 158 nM in assay [1] and 1000 nM in assay [2].

For the compound `C[C@]12CC[C@H](OCCCN3CCNCC3)C[C@H]1CC[C@@H]1[C@@H]2CC[C@]2(C)[C@@H](c3ccoc3)CC[C@]12O` [Comp. I-af, 3β-(3-(1-Piperazinyl)propoxy)-17β-(3-furyl)-5.β-androstan-14β-ol], the 50% inhibitory concentration (IC50) in assay [1] is 100 nM; in assay [2] (setting [3]), 1260 nM.

For the compound `C[C@]12CC[C@H](OCCOCCN3CCCC3)C[C@H]1CC[C@@H]1[C@@H]2CC[C@]2(C)[C@@H](c3ccoc3)CC[C@]12O` [Comp. I-ah, 3β-(2-(2-(1-Pyrrolidinyl)ethoxy)ethoxy)-17β-(3-furyl)-5β-androstan-14β-ol], the IC50 in assay [1] is 158 nM; in assay [2], 794 nM.

Turning to `CN(C)CCCOCCO[C@H]1CC[C@@]2(C)[C@H](CC[C@@H]3[C@@H]2CC[C@]2(C)[C@@H](c4ccoc4)CC[C@]32O)C1` [Comp. I-aj, 3β-(2-(3-Dimethylaminopropoxy)-ethoxy)-17β-(3-furyl)-5β-androstan-14β-ol], the IC50 in assay [1] is 158 nM; in assay [2] (setting [3]), 1260 nM.

For the compound `C[C@]12CC[C@H](OCC[N+]3(C)CCCC3)C[C@H]1CC[C@@H]1[C@@H]2CC[C@]2(C)[C@@H](c3ccoc3)CC[C@]12O` [Comp. I-ak, 3β-(2-(N-methyl-1-pyrrolydinium)ethoxy)-17β-(3-furyl)-5β-androstan-14β-ol iodide], the IC50 was 158 nM in assay [1] and 1260 nM in assay [2] (setting [3]).

Consider `C[C@]12CC[C@H](OCCCNC(=N)N)C[C@H]1CC[C@@H]1[C@@H]2CC[C@]2(C)[C@@H](c3ccoc3)CC[C@]12O` [Comp. I-am, 3β-(3-Guanidinopropxy)-17β-(3-furyl)-5β-androstan-14β-ol nitrate], for which the concentration for half-maximal inhibition (IC50) in assay [1] is 200 nM; in assay [2], 3160 nM.

Turning to `CNCCO[C@H]1CC[C@@]2(C)[C@H](CC[C@@H]3[C@@H]2CC[C@]2(C)[C@@H](c4ccoc4)CC[C@]32O)C1` [Comp. I-an, 3β-(2-Methylaminoethoxy)-17β-(3-furyl)-5β-androstan-14β-ol], the IC50 in assay [1] is 200 nM; in assay [2], 1580 nM.

Regarding `C[C@]12CC[C@H](OCC(N)CN)C[C@H]1CC[C@@H]1[C@@H]2CC[C@]2(C)[C@@H](c3ccoc3)CC[C@]12O` (stereo partly drawn) [Comp. I-ao, 3β-(2,3-Diaminopropoxy)-17β-(3-furyl)-5β-androstan-14β-ol], the half-maximal inhibitory concentration (IC50) in assay [1] is 316 nM; in assay [2], 1580 nM.

For `C[C@]12CC[C@H](OCC(CN3CCCC3)N3CCCC3)C[C@H]1CC[C@@H]1[C@@H]2CC[C@]2(C)[C@@H](c3ccoc3)CC[C@]12O` (stereo partly drawn) [Comp. I-ap, 3β-(2,3-Bis(1-pyrrolidinyl)propoxy)-17β-(3-furyl)-5β-androstan-14β-ol], the figures for the half-maximal inhibitory concentration (IC50) in assay [1] and in assay [2] were 398 nM and 1580 nM, respectively.

For the compound `CO[C@]12CC[C@H](c3ccoc3)[C@@]1(C)CC[C@H]1[C@H]2CC[C@@H]2C[C@@H](OCCCN)CC[C@@]21C` [Comp. I-ar], the IC50 was 3160 nM in assay [1] (setting [4]) and 25100 nM in assay [2] (setting [3]).

Consider `CO[C@]12CC[C@H](c3ccoc3)[C@@]1(C)CC[C@H]1[C@H]2CC[C@@H]2C[C@@H](OCCN3CCCC3)CC[C@@]21C` [Comp. I-as, 3β-(2-(1-Pyrrolydinyl)ethoxy)-14β-methoxy-17β-(3-furyl)-5β-androstane oxalate], for which the concentration for half-maximal inhibition (IC50) in assay [1] (setting [4]) was 5010 nM; in assay [2] (setting [3]), 25100 nM.

Consider `C[C@]12CC[C@H](OCCCN)C=C1CC[C@@H]1[C@@H]2CC[C@]2(C)[C@@H](c3ccoc3)CC[C@]12O` [Comp. I-at, 3β-(3-Aminopropoxy)-17β-(3-furyl)-androst-4-en-14β-ol], for which the figures for the IC50 in assay [1] (setting [4]) and in assay [2] were 631 nM and 2510 nM, respectively.

On to `C[C@]12CC[C@H](OCCN3CCCC3)C=C1CC[C@@H]1[C@@H]2CC[C@]2(C)[C@@H](c3ccoc3)CC[C@]12O` [Comp. I-au, 3β-(2-(1-Pyrrolidinyl)ethoxy)-17β-(3-furyl)-androst-4-en-14β-ol oxalate], for which the values for the concentration for half-maximal inhibition (IC50) in assay [1] and in assay [2] were 316 nM and 1580 nM, respectively.

With `C[C@]12CC[C@H](OCCCN)CC1=CC[C@@H]1[C@@H]2CC[C@]2(C)[C@@H](c3ccoc3)CC[C@]12O` [Comp. I-av, 3β-(3-Aminopropoxy)-17β-(3-furyl)-androst-5-en-14β-ol], the IC50 was 631 nM in assay [1] (setting [4]) and 2510 nM in assay [2].

With `C[C@]12CC[C@H](OCCN3CCCC3)CC1=CC[C@@H]1[C@@H]2CC[C@]2(C)[C@@H](c3ccoc3)CC[C@]12O` [Comp. I-aw, 3β-(2-(1-Pyrrolidinyl)ethoxy)-17β-(3-furyl)-androst-5-en--14β-ol], the IC50 in assay [1] is 1580 nM; in assay [2] (setting [3]), 6310 nM.

In the case of `C[C@]12CC[C@H](OCCN3CCCC3)C[C@@H]1CC[C@@H]1[C@@H]2CC[C@]2(C)[C@@H](c3ccoc3)CC[C@]12O` [Comp. I-ay, 3β-(2-(1-Pyrrolidinyl)ethoxy)-17β-(3-furyl)-5α-androstan-14β-ol], the IC50 in assay [1] was 398 nM; in assay [2] it was 3160 nM.

With `C[C@]12CC[C@H](OCCN3CCCC3)C[C@H]1CC[C@@H]1[C@@H]2CC[C@]2(C)[C@@H](c3ccoc3)C[C@H]3O[C@]132` [Comp. I-ba, 3β-(2-(1-Pyrrolidinyl)ethoxy)-14β,15β-epoxy-17β-(3-furyl)-5β-androstane oxalate], the 50% inhibitory concentration (IC50) was 631 nM in assay [1] and 1580 nM in assay [2].

Consider `C[C@]12CC[C@H](OCCN3CCCC3)C=C1CC[C@@H]1[C@@H]2CC[C@]2(C)[C@@H](c3ccoc3)C[C@H]3O[C@]132` [Comp. I-bc, 3β-(2-(1-Pyrrolidinyl)ethoxy)-14β,15β-epoxy-17β-(3-furyl)-androst-4-ene], for which the results for the IC50 in assay [1] and in assay [2] were 316 nM and 2000 nM, respectively.

For `C[C@]12CC[C@H](SCCN3CCOCC3)C[C@H]1CC[C@@H]1[C@@H]2CC[C@]2(C)[C@@H](c3ccoc3)CC[C@]12O` [Comp. I-bu, 3β-(2-(4-Morpholinoethylthio)-17β-(3-furyl)-5β-androstan-14β-ol oxalate], the IC50 was 316 nM in assay [1] and 631 nM in assay [2].

With `C[C@]12CC[C@H](SCCCN3CCNCC3)C[C@H]1CC[C@@H]1[C@@H]2CC[C@]2(C)[C@@H](c3ccoc3)CC[C@]12O` [Comp. I-bx, 3β-(3-(1-Piperazinyl)propylthio)-17β-(3-furyl)-5β-androstan-14β-ol dioxalate], the figures for the IC50 in assay [1] and in assay [2] were 501 nM and 1000 nM, respectively.

For the compound `C[C@]12CC[C@H](SCCN3CCCC3)C=C1CC[C@@H]1[C@@H]2CC[C@]2(C)[C@@H](c3ccoc3)CC[C@]12O` [Comp. I-ce, 3β-(2-(1-Pyrrolidinyl)ethylthio)-17β-(3-furyl)-androst-4-en-14β-ol oxalate], the IC50 in assay [1] was 1000 nM; in assay [2] it was 3160 nM.

For the compound `C[C@]12CC[C@H](SCCCN)C[C@H]1CC[C@@H]1[C@@H]2CC[C@]2(C)[C@@H](c3ccoc3)C[C@H]3O[C@]132` [Comp. I-cj, 3β-(3-Aminopropylthio)-14β,15β-epoxy-17β-(3-furyl)-5β-androstane oxalate], the concentration for half-maximal inhibition (IC50) is 2000 nM in assay [1] and 6310 nM in assay [2].

Take `C[C@]12CC[C@H](OCCOCCCN)C[C@H]1CC[C@@H]1[C@@H]2CC[C@]2(C)[C@@H](c3ccoc3)CC[C@]12O` [Comp. I-cx, 3β-(2-(3-Aminopropoxy)ethoxy)-17β-(3-furyl)-5β-androstan, 14β-ol]: the concentration for half-maximal inhibition (IC50) in assay [1] was 200 nM; in assay [2], 1580 nM.

With `C[C@]12CC[C@H](OCCOCC(O)CN)C[C@H]1CC[C@@H]1[C@@H]2CC[C@]2(C)[C@@H](c3ccoc3)CC[C@]12O` (stereo partly drawn) [Comp. I-cy, 3β-(2-(3-Amino-2-hydroxypropoxy)ethoxy)-17β-(3-furyl)-5β-androstan-14β-ol], the half-inhibitory concentration (IC50) in assay [1] was 398 nM; in assay [2], 1580 nM.

As to `C[C@]12CC[C@H](OCCOCC(N)CN)C[C@H]1CC[C@@H]1[C@@H]2CC[C@]2(C)[C@@H](c3ccoc3)CC[C@]12O` (stereo partly drawn) [Comp. I-cz, 3β-(2-(2,3-Diaminopropoxy)ethoxy)-17β-(3-furyl)-5β-androstan-14β-ol], the IC50 in assay [1] is 398 nM; in assay [2], 2000 nM.

For the compound `C[C@]12CC[C@H](OCCOCCCN3CCCC3)C[C@H]1CC[C@@H]1[C@@H]2CC[C@]2(C)[C@@H](c3ccoc3)CC[C@]12O` [Comp. I-da, 3β-(2-(3-(1-Pyrrolidinyl)propoxy)ethoxy)-17β-(3-furyl)-5β-androstan-14β-ol], the IC50 was 316 nM in assay [1] and 1580 nM in assay [2].

On to `C[C@]12CC[C@H](OCCNCCCN3CCCC3)C[C@H]1CC[C@@H]1[C@@H]2CC[C@]2(C)[C@@H](c3ccoc3)CC[C@]12O` [Comp. I-db, 3β-(2-(3-(1-Pyrrolidinyl)propylamino)ethoxy)-17β-(3-furyl)-5β-androstan-14β-ol], for which the IC50 in assay [1] was 200 nM; in assay [2], 1580 nM.
